Assay results reported in patent publication US8017611B2, “Pyridine and pyrazine derivatives -083” (AstraZeneca AB, priority 2007, dated 2011).
Read-outs that look alike come from different tables or passages of the source.

Target: T1, cMet expressed on MKN45 cells (Homo sapiens, UniProt P08581)
T1 construct: endogenous in cells; host or cells: MKN45
Assay: Cellular c-Met inhibition assay, Test (d)
Type: cell-based
Source text: These and other assays can be used to indicate the ability of a test compound to inhibit c-Met mediated cellular signalling in mammalian cell lines, for example the human tumour cell line MKN45. This is achieved by measuring the amount of phosphorylated c-Met within a cell following compound treatment.
MKN45 cells were routinely passaged in DMEM (Gibco BRL, product number 41966-029) plus 10% foetal calf serum (FCS), 1% L-glutamine (Gibco BRL, product number 25030024), to a confluence not greater than 85%. To undertake the assay, MKN45 cells were seeded at 2×10^4 cells/well in DMEM plus 0.5% foetal calf serum, 1% L-glutamine in 96 well plates (Costar, product number 3904) and incubated at 37° C. (+5% CO2) in a humidified incubator. Once the cells had fully adhered (typically following overnight incubation) plates were dosed with 25 μl compound (diluted from 10 mM stock in DMSO using serum free DMEM) and the plates were returned to a humidified 37° C. (+5% CO2) incubator for one hour. Following incubation the cells were fixed by adding formaldehyde (4% final concentration) and incubating at room temperature for 20 minutes. […] The plates were read using an Arrayscan II (Cellomics). […]

T1 sequence (P08581 25-1390): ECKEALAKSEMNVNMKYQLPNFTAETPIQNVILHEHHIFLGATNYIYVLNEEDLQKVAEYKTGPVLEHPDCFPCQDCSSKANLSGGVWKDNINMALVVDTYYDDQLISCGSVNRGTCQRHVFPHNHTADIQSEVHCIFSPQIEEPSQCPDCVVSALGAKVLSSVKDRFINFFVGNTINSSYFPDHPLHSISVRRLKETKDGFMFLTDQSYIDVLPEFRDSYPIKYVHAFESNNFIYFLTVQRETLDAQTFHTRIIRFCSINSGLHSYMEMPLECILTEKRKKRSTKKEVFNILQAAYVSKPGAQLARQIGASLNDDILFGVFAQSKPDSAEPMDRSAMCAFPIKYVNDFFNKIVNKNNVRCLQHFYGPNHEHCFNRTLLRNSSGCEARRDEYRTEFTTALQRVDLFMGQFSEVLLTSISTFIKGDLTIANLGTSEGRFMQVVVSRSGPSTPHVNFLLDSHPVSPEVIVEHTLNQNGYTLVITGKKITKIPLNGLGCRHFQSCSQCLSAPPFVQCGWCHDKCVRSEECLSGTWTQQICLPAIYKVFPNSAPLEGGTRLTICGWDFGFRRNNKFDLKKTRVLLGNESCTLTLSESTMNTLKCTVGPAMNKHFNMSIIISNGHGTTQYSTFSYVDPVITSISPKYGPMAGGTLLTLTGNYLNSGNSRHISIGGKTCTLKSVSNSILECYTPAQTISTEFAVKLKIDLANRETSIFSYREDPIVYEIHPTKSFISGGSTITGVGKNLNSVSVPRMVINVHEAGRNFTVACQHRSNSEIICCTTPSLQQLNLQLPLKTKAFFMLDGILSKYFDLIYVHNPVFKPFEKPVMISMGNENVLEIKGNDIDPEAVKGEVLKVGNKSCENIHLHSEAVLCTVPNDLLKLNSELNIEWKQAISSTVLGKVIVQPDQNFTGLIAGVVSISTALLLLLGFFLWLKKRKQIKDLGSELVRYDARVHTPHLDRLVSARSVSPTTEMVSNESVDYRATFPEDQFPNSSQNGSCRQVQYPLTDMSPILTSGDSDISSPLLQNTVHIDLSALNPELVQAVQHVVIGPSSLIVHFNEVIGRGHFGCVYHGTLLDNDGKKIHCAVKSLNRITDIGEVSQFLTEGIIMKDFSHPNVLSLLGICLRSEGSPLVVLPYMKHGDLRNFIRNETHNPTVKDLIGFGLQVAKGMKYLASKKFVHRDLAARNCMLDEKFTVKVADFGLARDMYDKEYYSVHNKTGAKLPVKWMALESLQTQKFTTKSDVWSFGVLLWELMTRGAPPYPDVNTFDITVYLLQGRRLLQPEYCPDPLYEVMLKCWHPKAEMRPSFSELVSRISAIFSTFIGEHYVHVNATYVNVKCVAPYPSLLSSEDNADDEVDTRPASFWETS

IC50 (MKN45 cells, read-out: IC50 versus cellular phospho-c-Met (pYpYpY1230/4/5)): ~590 nM
IC50 (later recalculated, read-out: IC50 versus cellular phospho-c-Met (pYpYpY1230/4/5), mean recalculated from a larger number of replicates): 950 nM
SMILES: CN1CCC(n2cc(-c3cnc(N)c(-c4nc5ccc(F)cc5o4)c3)cn2)CC1 [Example 7.2]
